Source: ChEMBL document CHEMBL5620379, “Discovery, SAR and mechanistic studies of quinazolinone-based acetamide derivatives in experimental visceral leishmaniasis” (Eur J Med Chem, 2023)
Calls of active or inactive are those of the source. The rule behind the calls is not given here.

Key:
J774 [1] = assay: Cytotoxicity against mouse J774 macrophage incubated for 72 hrs by MTT assay; type: functional
Leishmania donovani [2] = assay: Antileishmanial activity against Leishmania donovani promastigotes at 25 uM measured after 48 hrs by MTT assay relative to control; type: functional
[3] = Stability of the compound in stimulated intestinal fluid at 10 ug/ml at pH 6.8 measured after 120 min by HPLC analysis; type: ADME; conditions: simulated intestinal fluid, at 10 µg/mL, read-out: Stability
Leishmania donovani [4] = assay: Antileishmanial activity against amastigote form of Leishmania donovani infected in BALB/c mouse assessed as inhibition of parasite growth in liver at 10 mg/kg, po measured after 1 week post treatment by geimsa staining based analysis relative to control; type: functional; parameters: scale not given: the % may be the effect or the level left; conditions: time 1 weeks
[5] = Toxicity in BALB/c mouse assessed as effect on skin texture at 10 to 40 mg/kg, po measured after 1 week; type: organism-based; conditions: in vivo, 168 h, dose 10-40 mg/kg, time 1 weeks
Splenocyte = assay: Immunostimulatory activity in mouse splenocyte assessed as fold increase in IL-12 synthesis at 10 to 40 mg/kg measured after 1 week by RT-PCR analysis; type: functional; conditions: dose 10-40 mg/kg; time 1 weeks
Leishmania donovani [6] = assay: Antileishmanial activity against Leishmania donovani infected in golden hamster assessed as inhibition of parasite growth in liver at 40 mg/kg, po administered for 7 days and measured after 28 days by giemsa staining based analysis relative to control; type: functional; parameters: scale not given: the % may be the effect or the level left; conditions: time 28 day
Leishmania donovani [7] = assay: Antileishmanial activity against Leishmania donovani infected in golden hamster assessed as inhibition of parasite growth in liver at 80 mg/kg, po administered for 7 days and measured after 28 days by giemsa staining based analysis relative to control; type: functional; parameters: scale not given: the % may be the effect or the level left; conditions: time 28 day
Leishmania donovani [8] = assay: Antileishmanial activity against Leishmania donovani infected in golden hamster assessed as inhibition of parasite growth in spleen at 80 mg/kg, po administered for 7 days and measured after 28 days by giemsa staining based analysis relative to control; type: functional; parameters: scale not given: the % may be the effect or the level left; conditions: time 28 day
[9] = Toxicity in golden hamster infected with Leishmania donovani assessed as reduction in serum ALT level at 40 mg/kg ,po and measured after 28 days post infection (reference value: 81.58 IU/L); type: organism-based, Mesocricetus auratus; conditions: in vivo, 672 h, time 28 day
J774 [10] = assay: Immunostimulatory activity in mouse J774 macrophage infected with Leishmania donovani assessed as decrease in IL-10 level at 25 uM measured after 24 hrs by RT-PCR analysis relative to control; type: functional; parameters: scale not given: the % may be the effect or the level left
J774 [11] = assay: Immunostimulatory activity in mouse J774 macrophage infected with Leishmania donovani assessed as fold increase in IL-12 level at 25 uM measured after 24 hrs by RT-PCR analysis; type: functional
J774 [12] = assay: Immunostimulatory activity in mouse J774 macrophage infected with Leishmania donovani promastigotes assessed as fold increase in iNOS mRNA expression at 25 uM measured after 48 hrs in presence of nitric oxide by spectrophotometer analysis; type: functional
J774 [13] = assay: Downregulation of GSK-3beta phosphorylation in mouse J774 macrophage infected with Leishmania donovani at 25 uM measured after 8 to 12 hrs by immunoblot analysis; type: functional, cell-based; conditions: time 8-12 hrs
Leishmania donovani [14] = assay: Antileishmanial activity against Leishmania donovani promastigotes assessed as decrease in intracellular proline level at 25 uM measured after 24 hrs (reference value: 6.27 mM); type: functional
Leishmania donovani [15] = assay: Induction of cell cycle arrest in Leishmania donovani promastigotes assessed as accumulation of cells at G1 phase at 25 uM measured after 8 hrs by PI staining based flow cytometry analysis (reference value: 35.7%); type: functional
Leishmania donovani [16] = assay: Induction of cell cycle arrest in Leishmania donovani promastigotes assessed as accumulation of cells at S phase at 25 uM measured after 4 hrs by PI staining based flow cytometry analysis (reference value: 28.6%); type: functional
Leishmania donovani [17] = assay: Induction of cell cycle arrest in Leishmania donovani promastigotes assessed as accumulation of cells at G2/M phase at 25 uM measured after 4 hrs by PI staining based flow cytometry analysis (reference value: 35.7%); type: functional
Leishmania donovani [18] = assay: Induction of cell cycle arrest in Leishmania donovani promastigotes assessed as accumulation of cells at G2/M phase at 25 uM measured after 12 hrs by PI staining based flow cytometry analysis (reference value: 35.7%); type: functional
Leishmania donovani [19] = assay: Induction of autophagy in Leishmania donovani promastigotes assessed as increase in number of MDC-positive parasite by measuring MDC-labelled vacuoles at 25 uM measured after 24 hrs by MDC staining based analysis; type: functional, organism-based
Leishmania donovani [20] = assay: Induction of autophagy in Leishmania donovani promastigotes assessed as appearance of lipid droplets in cytoplasm at 25 uM measured after 24 hrs by Nile red staining based fluorescence microscopic analysis; type: functional, organism-based
Leishmania donovani [21] = assay: Antileishmanial activity against Leishmania donovani promastigotes at 25 uM measured after 12 hrs by luciferase assay relative to control; type: functional
Leishmania donovani [22] = assay: Antileishmanial activity against Leishmania donovani promastigotes at 25 uM measured after 12 hrs in presence of antipain by luciferase assay relative to control; type: functional
Leishmania donovani [23] = assay: Induction of autophagy in Leishmania donovani promastigotes assessed as fold increase in Sir2 transcript level at 25 uM measured after 24 hrs by RT-PCR analysis; type: functional
Leishmania donovani [24] = assay: Induction of apoptosis in Leishmania donovani promastigotes assessed as late phase apoptosis at 25 uM measured after 48 hrs by DNA laddering assay; type: functional, organism-based
Leishmania donovani [25] = assay: Induction of apoptosis in Leishmania donovani promastigotes assessed as appearance of intense swelling in mitochondria at 25 uM by transmission electron microscopy analysis; type: functional, organism-based

Cn1c(-c2ccc(OCC(=O)Nc3ccccn3)cc2)nc2ccccc2c1=O
CC50 (J774 [1]): 65 µM
Activity (Leishmania donovani [2]): 85.64%
remaining at 2 h, 10 ug/ml [3]: 97.5%
Activity (Leishmania donovani [4]): >50%
Activity [5]: Non-Toxic
fold change (FC) (Splenocyte): 4.96
Activity (Leishmania donovani [6]): 66.7%
Activity (Leishmania donovani [7]): 86.5%
Activity (Leishmania donovani [8]): 85.8%
Activity [9]: 101.88 IU/L
Activity (J774 [10]): 72.23%
fold change (FC) (J774 [11]): 3.4
fold change (FC) (J774 [12]): 4.87
Activity (J774 [13]): Active
Activity (Leishmania donovani [14]): 2.96 mM
Activity (Leishmania donovani [15]): 55.5%
Activity (Leishmania donovani [16]): 25.6%
Activity (Leishmania donovani [17]): 30.6%
Activity (Leishmania donovani [18]): 18.7%
Activity (Leishmania donovani [19]): Active
Activity (Leishmania donovani [20]): Active
Activity (Leishmania donovani [21]): 11.8%
Activity (Leishmania donovani [22]): 40.44%
fold change (FC) (Leishmania donovani [23]): 4.95
Activity (Leishmania donovani [24]): Active
Activity (Leishmania donovani [25]): Active
